ChEMBL document CHEMBL3102772, “New natural products as new leads for antibacterial drug discovery” (Bioorg Med Chem Lett, 2014)
Values after ≈ are worked out from the molar mass of the structure shown. Values belong to the molecule of their own block, whether it stands above or below them. Starred links: 1 amine or outer side, 2 acyl side, 3 side chain; linkers in the order of their positions; H or OH if unused. Positions of bridges follow the written chain, without caps; N, C: chain ends. Non-standard residues stand in square brackets, D forms with d. Residues, ends and D or L forms follow the SMILES beside them. X1 = CC(C)=CCc1ccc(Cl)c2[nH]cc(CC(N[*:1])C(=O)[*:2])c12; Trp(7-Cl) = N[CH](Cc1c[nH]c2c(Cl)cccc12)C(=O)O; Malonyl = O=C(CC(=O)[*:2])[*:1]; Cya = N[CH](CS(=O)(=O)O)C(=O)O; Dab = NCC[C@H](N)C(=O)O

How the values were obtained:
[1] = system: Escherichia coli; assay: Antibacterial activity against Escherichia coli NCTC 10418 assessed as growth inhibition; format: functional
[2] = system: Escherichia coli; assay: Antibacterial activity against Escherichia coli SANK 70569 assessed as growth inhibition; format: functional
[3] = system: Escherichia coli; assay: Antibacterial activity against Escherichia coli PAS0232 harboring SPase P84S mutant assessed as growth inhibition after 24 hrs by micro-broth dilution method; format: functional; conditions: PAS0232, 24 h
[4] = system: Staphylococcus aureus; assay: Antibacterial activity against Staphylococcus aureus PAS8001 harboring SPase P29S mutant assessed as growth inhibition after 24 hrs by micro-broth dilution method; format: functional; conditions: PAS8001, 24 h
[5] = system: Staphylococcus epidermidis; assay: Antibacterial activity against Staphylococcus epidermidis PAS9001 harboring SPase S92P mutant assessed as growth inhibition after 24 hrs by micro-broth dilution method; format: functional; conditions: PAS9001, 24 h
[6] = Ratio of MIC for Staphylococcus epidermidis PAS9001 harboring SPase S92P mutant to MIC for wild type Staphylococcus epidermidis RP62A; format: functional
[7] = system: Staphylococcus epidermidis; assay: Antibacterial activity against wild type Staphylococcus epidermidis RP62A assessed as growth inhibition after 24 hrs by micro-broth dilution method; format: functional
[8] = system: Pseudomonas aeruginosa; assay: Antibacterial activity against Pseudomonas aeruginosa PAS2006 harboring SPase P84S mutant assessed as growth inhibition after 24 hrs by micro-broth dilution method; format: functional; conditions: PAS2006, 24 h
[9] = system: Staphylococcus aureus; assay: Antibacterial activity against 24 clinical isolates of methicillin resistant Staphylococcus aureus […] assessed as growth inhibition by broth dilution method; format: functional
[10] = system: Pseudomonas aeruginosa; assay: Antibacterial activity against Pseudomonas aeruginosa clinical isolate assessed as growth inhibition; format: functional
[11] = system: HepG2; assay: Cytotoxicity against human HepG2 cells; format: cell-based
[12] = system: Staphylococcus aureus; assay: Antibacterial activity against Staphylococcus aureus assessed as growth inhibition; format: functional
[13] = system: Klebsiella pneumoniae; assay: Antibacterial activity against Klebsiella pneumoniae clinical isolate assessed as growth inhibition; format: functional
[14] = Cytotoxicity against human Fa2N-4 cells; format: cell-based
[15] = system: Escherichia coli; assay: Antibacterial activity against Escherichia coli clinical isolate assessed as growth inhibition; format: functional
[16] = system: Acinetobacter baumannii; assay: Antibacterial activity against Acinetobacter baumannii clinical isolate assessed as growth inhibition; format: functional
[17] = system: Staphylococcus aureus; assay: Antibacterial activity against methicillin resistant Staphylococcus aureus COL MB5393 assessed as growth inhibition after 20 hrs by agar dilution method; format: functional; conditions: COL MB5393, 20 h
[18] = system: Escherichia coli; assay: Antibacterial activity against Escherichia coli MB2884 assessed as growth inhibition after 20 hrs by agar dilution method; format: functional; conditions: MB2884, 20 h
[19] = system: Escherichia coli; assay: Antibacterial activity against Escherichia coli MB5746 harboring envA1/TolC efflux pump mutant assessed as growth inhibition after 20 hrs by agar dilution method; format: functional; conditions: MB5746, 20 h
[20] = system: Staphylococcus aureus; assay: Antibacterial activity against methicillin sensitive Staphylococcus aureus MB2865 assessed as growth inhibition after 20 hrs by agar dilution method; format: functional; conditions: MB2865, 20 h
[21] = system: Bacillus subtilis; assay: Antibacterial activity against Bacillus subtilis assessed as growth inhibition; format: functional
[22] = system: Pseudomonas aeruginosa; assay: Bactericidal activity against Pseudomonas aeruginosa PA14 after 16 to 20 hrs by agar diffusion assay; format: functional
[23] = system: Pseudomonas aeruginosa; assay: Antibacterial activity against Pseudomonas aeruginosa PA14 assessed as growth inhibition after 16 to 20 hrs by agar diffusion assay; format: functional, organism-based
[24] = system: Pseudomonas aeruginosa; assay: Antibacterial activity against Pseudomonas aeruginosa ATCC 27853 assessed as growth inhibition by microdilution method; format: functional
[25] = system: Pseudomonas aeruginosa; assay: Antibacterial activity against Pseudomonas aeruginosa ATCC 27853 infected in sc dosed mouse septisemia model measured at 1 to 5 hrs; format: functional; conditions: ATCC 27853, sc
[26] = system: Staphylococcus aureus; assay: Antibacterial activity against 10 clinical isolates of methicillin resistant Staphylococcus aureus […] assessed as growth inhibition by broth dilution method; format: functional

SMILES: CCCCCCCCCC[C@H]1OC(=O)CNC(=O)[C@H]([C@H](C)O)NC(=O)[C@H](CO)NC(=O)[C@H]([C@H](C)CC)NC(=O)[C@H](CC(C)C)N(C)C(=O)[C@@H]1C
MIC [2]: 1.56 mg/L (≈ 2.19 µM)

SMILES: CCCCCCCCCCCCCCCC(=O)N(C)[C@H](CO)C(=O)N[C@H](C)C(=O)NCC(=O)N(C)[C@@H]1C(=O)N[C@@H](C)C(=O)N[C@H](C(=O)O)Cc2ccc(O)c(c2)-c2cc1ccc2O [ARYLOMYCIN C16]
MIC [3]: 4 mg/L (≈ 4.54 µM)
MIC [4]: 2 mg/L (≈ 2.27 µM)
MIC [5]: 8 mg/L (≈ 9.08 µM)
Ratio [6]: 32
MIC [7]: 0.25 mg/L (≈ 0.284 µM)
MIC [8]: 8 mg/L (≈ 9.08 µM)

SMILES: CCCCCC[C@H]1OC(=O)CNC(=O)[C@H]([C@H](C)O)NC(=O)[C@H](CO)NC(=O)[C@H]([C@H](C)CC)NC(=O)[C@H](CC(C)C)N(C)C(=O)[C@@H]1C
MIC [2]: 12.5 mg/L (≈ 19.1 µM)

SMILES: CC(C)=CCc1ccc(Cl)c2[nH]cc(CC3NC(=O)C(Cc4c[nH]c5c(Cl)cccc45)NC(=O)C4CCCN4C(=O)C(CS(=O)(=O)O)NC(=O)C(NC(=O)C(NC(=O)C(C)NC(=O)CC(=O)O)C(C)C)COC(=O)C(CO)NC(=O)C(CC(C)C)NC(=O)C(C(C)C)NC3=O)c12 (stereo not drawn) (Malonyl-AVS[Cya]P[Trp(7-Cl)][X1]VLS; ester 3-C; configuration not given here)
MIC [9]: 16 mg/L (≈ 11.4 µM)

SMILES: C=C1CC[C@@H](O[C@H]2C[C@@](O)([C@H](C)NC(=O)c3[nH]c(C)c(Cl)c3Cl)[C@H](O)[C@@H](C)O2)[C@@H]2C=C[C@H](C)C(/C(O)=C3\C(=O)[C@H](C(C)C)N([C@H]4O[C@H](C)[C@H](OC(N)=O)[C@H](OC(C)=O)[C@@H]4OC)C3=O)[C@@H]12 (stereo partly drawn) [KIBDELOMYCIN]
MIC [17]: 0.5 mg/L (≈ 0.532 µM)
MIC [18]: > 64 mg/L
MIC [19]: 32 mg/L (≈ 34 µM)
MIC [20]: 2 mg/L (≈ 2.13 µM)

SMILES: CCCCCCC(CCCCCC(O)C(N)=O)OC(=O)C1CC=CN1C(=O)c1ccccc1O (stereo not drawn)
MBC [22]: 100 mg/L (≈ 211 µM)
IC50 [23]: 0.16 mg/L (≈ 0.337 µM)

SMILES: CC[C@H](C)[C@@H]1NC(=O)[C@H](Cc2c[nH]c3ccccc23)NC(=O)[C@H]([C@@H](C)O)NC(=O)[C@@H]2CCCN2C(=O)[C@@H]2CCCN2C(=O)[C@H](CCN)NC(=O)[C@H](C)NC(=O)[C@H](CCN)NC(=O)[C@H](CCN)NC(=O)[C@H](Cc2c[nH]c3ccccc23)NC(=O)[C@H](CCN)NC(=O)[C@H](CCN)NC(=O)[C@H](CCCCN)NC(=O)[C@H](CCN)NC1=O (cyclo(A[Dab]PPTWI[Dab]K[Dab][Dab]W[Dab][Dab]))
MIC [24]: 0.008 mg/L
ED50 [25]: 0.25 mg/kg

SMILES: CCCC(C)/C=C(/C)C(=O)OC(CCCCCCC/C=C/C(=O)NCCC(=O)NC(CS(=O)(=O)O)C(=O)N(C)C1C(=O)NC(C)C(=O)NC(C(=O)O)Cc2ccc(OS(=O)(=O)O)c(c2)-c2cc1cc(OS(=O)(=O)O)c2O[C@H]1O[C@H](C)[C@@H](O)[C@H](O)[C@@H]1O)CCC(C)C (stereo partly drawn)
MIC [26]: 0.5 mg/L (≈ 0.371 µM)

The next lines start with results.

MIC [1]: 3.12 mg/L (≈ 4.98 µM)
SMILES: CCC[C@@H]1OC(=O)[C@@H](C)C[C@H](C)CCCCC(=O)CCC[C@@H](CC)CC/C=C(\COC)CC[C@@H](O)[C@@H](O)C[C@H](O)CNC1=O

MIC [10]: 0.256 mg/L (≈ 0.667 µM)
MIC [12]: > 128 mg/L
MIC [13]: 0.256 mg/L (≈ 0.667 µM)
MIC [15]: 0.256 mg/L (≈ 0.667 µM)
MIC [16]: 0.256 mg/L (≈ 0.667 µM)
SMILES: [C-]#[N+]C(=C)[C@@](Cc1ccc(OC)cc1)([N+]#[C-])C1C[C@@H](OC(=O)CO)CC[C@@H]1O (stereo partly drawn)
Activity [11]: > 512 µg/mL
Activity [14]: > 512 µg/mL

MIC [21]: 70 mg/L (≈ 130 µM)
SMILES: C/C(=C\c1ccc(N(C)C)cc1)C(=O)N[C@@H]1[C@H](O)[C@@H](O)[C@H]2OC(OC(C(=O)O)C(O)CO)O[C@H]2[C@@H]1N(C)C (stereo partly drawn)

MIC [1]: 6.25 mg/L (≈ 10 µM)
SMILES: CCC[C@@H]1OC(=O)[C@@H](C)C[C@H](C)CCCCC(=O)CCC[C@@H](CC)/C=C/C=C(\COC)CC[C@@H](O)[C@@H](O)C[C@H](O)CNC1=O
